Results as given in paper PMC9612166 (Molecules, 2022).
Like-named read-outs stand apart in the source and are kept apart here.

Tests used:
human Topo I = biological target: T1, human Topo I (Homo sapiens, UniProt P11387); experiment: Human Topoisomerase I relaxation high-throughput plate assay (fluorescent DNA stain); type: biochemical
T1 construct: gene TOP1
T1 sequence (P11387 2-765): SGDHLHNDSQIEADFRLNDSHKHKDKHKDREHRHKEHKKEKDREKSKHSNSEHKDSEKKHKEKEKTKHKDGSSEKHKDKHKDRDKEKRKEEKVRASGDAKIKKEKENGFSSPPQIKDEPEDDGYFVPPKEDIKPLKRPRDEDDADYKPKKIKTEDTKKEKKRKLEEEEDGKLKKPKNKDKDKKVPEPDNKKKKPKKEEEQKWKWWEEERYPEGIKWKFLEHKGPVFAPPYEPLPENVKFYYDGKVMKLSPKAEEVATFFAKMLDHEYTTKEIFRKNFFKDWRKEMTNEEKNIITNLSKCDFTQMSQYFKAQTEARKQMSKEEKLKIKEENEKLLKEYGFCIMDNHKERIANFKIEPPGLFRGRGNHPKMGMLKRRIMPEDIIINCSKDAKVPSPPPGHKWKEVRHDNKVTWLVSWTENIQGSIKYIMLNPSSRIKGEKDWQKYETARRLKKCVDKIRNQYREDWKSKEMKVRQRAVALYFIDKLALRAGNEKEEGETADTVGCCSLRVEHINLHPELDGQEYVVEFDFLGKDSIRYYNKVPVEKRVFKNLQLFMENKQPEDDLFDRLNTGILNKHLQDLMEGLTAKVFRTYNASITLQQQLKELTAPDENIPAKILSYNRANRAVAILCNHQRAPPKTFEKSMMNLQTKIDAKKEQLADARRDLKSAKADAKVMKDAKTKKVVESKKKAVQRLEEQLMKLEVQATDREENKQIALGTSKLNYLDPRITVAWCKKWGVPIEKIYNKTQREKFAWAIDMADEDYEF

[1] = tested on: nicked decamer 2B (DNA, duplex, nick between T5 and G6) GCGTT/GTCGC/GCGACAACGC; experiment: MALDI-ToF MS; details: covalent; alkylated product m/z 7296.2 in reaction mother liquor
[2] = tested on: nicked decamer 2B (DNA, duplex, nick between T5 and G6) GCGTT/GTCGC/GCGACAACGC; experiment: NOESY/TOCSY NMR; details: 25 mM NaCl, 25 mM K3PO4; D2O, pH 6, 298 K; stacking at the nick, intermolecular NOEs
[3] = tested on: nicked decamer 2B (DNA, duplex, nick between T5 and G6) GCGTT/GTCGC/GCGACAACGC; experiment: DOSY NMR diffusion; details: 25 mM NaCl, 25 mM K3PO4; D2O, pH 6, 298 K; 0.33 mM each; single-point from diffusion coefficients

SMILES	IC50 (human Topo I; read-out: SN38)	binding [1]	IC50 (human Topo I)	binding [2]	Ka [3]
CCc1c2c(nc3ccc(O)cc13)-c1cc3c(c(=O)n1C2)COC(=O)[C@]3(O)CC [SN38, reference compound]	7.37 ± 7.1 µM	–	–	–	–
CCc1c2c(nc3ccc(O)c(CNCCO)c13)-c1cc3c(c(=O)n1C2)COC(=O)[C@]3(O)CC [compound 1, 7-ethyl-9-[N-(2′-hydroxyethyl)amino]methyl-10-hydroxycamptothecin]	–	yes	1.73 ± 0.48 µM	yes	746.0 mM⁻¹
